Assay results: ChEMBL document CHEMBL3992495, “Aliphatic and alicyclic camphor imines as effective inhibitors of influenza virus H1N1” (Eur J Med Chem, 2017)
Counter-ions that a name gives are not always drawn.

What was measured:
[1] = Cytotoxicity against MDCK cells after 48 hrs by MTT assay; format: cell-based, Canis lupus familiaris; conditions: dog, read-out: CTD50
[2] = Antiviral activity against Influenza A virus (A/California/07/09(H1N1)) infected in MDCK cells assessed as inhibition of viral replication after 48 hrs by hemagglutination test; format: functional, Influenza A virus (A/California/07/2009(H1N1)); conditions: read-out: ED50 (the source's name)
[3] = system: Influenza A virus (A/California/07/09(H1N1)); test: Selectivity index, ratio of CTD50 for MDCK cells to ED50 for Influenza A virus (A/California/07/09(H1N1)); format: toxicity; conditions: dog, read-out: Selectivity Index
[4] = system: Influenza A virus; test: Antiviral activity against Influenza A virus (A/Puerto Rico/8/34(H1N1)) infected in MDCK cells assessed as inhibition of viral replication after 48 hrs by hemagglutination test; format: functional; conditions: A/Puerto Rico/8/1934(H1N1), read-out: ED50 (the source's name)
[5] = system: Influenza A virus (A/Puerto Rico/8/34(H1N1)); test: Selectivity index, ratio of CTD50 for MDCK cells to ED50 for Influenza A virus (A/Puerto Rico/8/34(H1N1)); format: toxicity; conditions: dog, read-out: Selectivity Index

SMILES	CC50 at 48 h [1] [µM]	EC50 ([2]; Influenza A virus, MDCK, 48 h) [µM]	selectivity ratio [3]	EC50 [4] [µM]	selectivity ratio [5]	EC50 [2] [µM]
CCCCCCCCCCCCCCCCCC/N=C1\C[C@H]2CC[C@]1(C)C2(C)C	> 744	744	> 1	> 744	< 1	–
CCCCC/N=C1\C[C@H]2CC[C@]1(C)C2(C)C	801	7.7	104	12.2	66	–
CCCCCCCCCCCC/N=C1\C[C@H]2CC[C@]1(C)C2(C)C	62.1	15.7	4	> 37.6	< 2	–
CCC/N=C1\C[C@H]2CC[C@]1(C)C2(C)C	> 2590	19.7	> 131	4.1	> 632	–
CCCCCCCC/N=C1\C[C@H]2CC[C@]1(C)C2(C)C	97.3	64.6	2	9.9	10	–
CCCCCCCCCC/N=C1\C[C@H]2CC[C@]1(C)C2(C)C	50.9	17.2	3	10.3	5	–
CCCCCC/N=C1\C[C@H]2CC[C@]1(C)C2(C)C	468	26	18	29.8	16	–
CC1(C)[C@@H]2CC[C@@]1(C)/C(=N/C1CCCCC1)C2	> 1290	55.4	> 23	15.5	> 83	–
CC(N)[C@@H]1C[C@H]2CC[C@@H]1C2 (some centres undefined)	1260 to 1270	206 to 209	–	230	–	–
CC1(C)[C@@H]2CC[C@@]1(C)/C(=N/C1CC1)C2	1660	592	3	738	2	–
CCCC/N=C1\C[C@H]2CC[C@]1(C)C2(C)C	2420	7.7	312	5.8	417	–
CC1(C)[C@@H]2CC[C@@]1(C)/C(=N/CCO)C2	2500	5	500	–	–	–
CCCCCCC/N=C1\C[C@H]2CC[C@]1(C)C2(C)C	234	1.4	171	4.8	49	–
NC12CC3CC(CC(C3)C1)C2 [AMANTADINE]	280 to 284	64.2 to 70	4	72.8	4	–
CC12CCC(CC1=O)C2(C)C (centres undefined) [CAMPHOR]	–	–	2	1450	2	1640
CC(N)C12CC3CC(CC(C3)C1)C2 (centres undefined) [RIMANTADINE HYDROCHLORIDE]	–	67	5	83.8	4	–
